Test results reported in US9926275B2 (priority 2013, dated 2018).
Read-outs that look alike come from different tables or passages of the source.

Legend:
CB1 receptor [1] = molecular target: T1, CB1 receptor (Homo sapiens, UniProt P21554); test: DiscoveRx HitHunter cAMP XS+ assay in cAMP Hunter cell line, allosteric modulation of CP55,940 response; type: cell-based; conditions: for EC50: read-out: cAMP EC50
Experimental: Once it was established that the cells were healthy and growing normally, cells were passaged from flasks using cell dissociation reagent buffer and seeded into white walled clear bottom 384-well microplates for compound profiling. For profiling, cells were seeded at a density of 10000 cells per well in a total volume of 20 μL and were allowed to adhere and recover overnight prior to compound addition. Cells were treated the following day using the protocols shown below. cAMP modulation was determined using the DiscoveRx HitHunter cAMP XS+ assay.
Media was aspirated from cells and replaced with 10 μL 1:1 HBSS/Hepes: cAMP XS+ Ab reagent. Agonist (CP55,940) dose curves were performed to determine the EC20 value for the testing with the compounds of the present technology. 5 μL of 4× agonist was added to each well with an equal concentration of vehicle present. EC20 agonist concentration was determined directly from agonist dose curve.
(§1) For allosteric determination, cells were preincubated with compound followed by agonist challenge at the EC20 concentration of the agonist. 5 μL of 4× compound was added to cells and incubated at 37° C. for 30 minutes. 5 μL of 4× EC20 agonist was added to cells and incubated at 37° C. for 30 minutes.
Signal Detection: After appropriate compound incubation, assay signal was generated through incubation with 20 μL cAMP XS+ED/CL lysis cocktail for one hour followed by incubation with 20 μL cAMP XS+EA reagent for three hours at room temperature. Microplates were read following signal generation with a PerkinElmer Envision™ instrument for chemiluminescent signal detection.
(§2) Data Analysis: Dose curves were plotted using GraphPad Prism or Activity Base. The percentage activity is calculated using the following formula: % Activity=100%×(1−(mean RLU of test sample−mean RLU of MAX control)/(mean RLU of vehicle control [EC20 for PAM]−mean RLU of MAXcontrol).
(§3) Agonist (CP55,940) dose curves were performed for the CNR1 PathHunter and cAMP Hunter cell lines. […] The cAMP assay was performed in the presence of 20 μM forskolin (EC80).
(§4) In Vitro Evaluation: The in vitro evaluation of the covalent allosteric modulators was performed using as described previously.

CB1 receptor [2] = molecular target: T1, CB1 receptor; test: β-arrestin recruitment in CNR1 PathHunter cell line, allosteric modulation of CP55,940 response; type: cell-based; conditions: for EC50: read-out: β-arrestin EC50
Experimental: as §1, §2, §3, §4

[3] = Table 1, preincubation with compound, then CP55,940 challenge, 20 μM forskolin

T1 sequence (P21554 whole entry): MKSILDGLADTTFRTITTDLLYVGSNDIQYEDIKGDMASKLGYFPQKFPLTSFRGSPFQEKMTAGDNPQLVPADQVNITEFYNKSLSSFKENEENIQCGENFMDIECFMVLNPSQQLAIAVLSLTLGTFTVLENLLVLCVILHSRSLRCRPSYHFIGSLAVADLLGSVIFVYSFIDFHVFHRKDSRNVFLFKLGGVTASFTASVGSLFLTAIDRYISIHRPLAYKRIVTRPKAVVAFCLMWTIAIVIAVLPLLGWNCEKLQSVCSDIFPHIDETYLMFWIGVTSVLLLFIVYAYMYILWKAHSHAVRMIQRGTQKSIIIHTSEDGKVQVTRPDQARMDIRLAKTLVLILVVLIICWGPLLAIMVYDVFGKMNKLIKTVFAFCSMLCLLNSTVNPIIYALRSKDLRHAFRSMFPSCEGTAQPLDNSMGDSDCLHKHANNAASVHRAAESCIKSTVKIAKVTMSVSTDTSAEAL

SMILES | cAMP % inhibition (CB1 receptor [1]) [%] | β-arrestin % inhibition (CB1 receptor [2]) [%] | cAMP % inhibition (CB1 receptor [1]; [3]) [%] | EC50 (CB1 receptor [1]; [3]) [nM] | β-arrestin % inhibition (CB1 receptor [2]; Table 1, CP55,940 as agonist) [%] | EC50 (CB1 receptor [2]; Table 1, CP55,940 as agonist) [nM]
O=C(Nc1ccc(Cl)cc1)Nc1cccc(-c2cccc(N3CCCC3)n2)c1 [Compound 10a, 1-(4-Chlorophenyl)-3-(3-(6-(pyrrolidin-1-yl)pyridin-2-yl)phenyl)urea] | 108 | 109 |  |  |  | 
O=C(Nc1ccc(I)cc1)Nc1cccc(-c2cccc(N3CCCC3)n2)c1 [Compound 10b, 1-(4-Iodophenyl)-3-(3-(6-(pyrrolidin-1-yl)pyridin-2-yl)phenyl)urea] |  |  | 126 | 223 | 133 | 27
O=C(Nc1cccc(Cl)c1)Nc1cccc(-c2cccc(N3CCCC3)n2)c1 [Compound 10c, 1-(3-Chlorophenyl)-3-(3-(6-(pyrrolidin-1-yl)pyridin-2-yl)phenyl)urea] |  |  | 111 | 782 | 128 | 260
O=C(Nc1cccc(-c2cccc(N3CCCC3)n2)c1)Nc1ccccc1Cl [Compound 10d, 1-(2-Chlorophenyl)-3-(3-(6-(pyrrolidin-1-yl)pyridin-2-yl)phenyl)urea] |  |  | 39 | > 10000 | 105 | 2170
O=C(Nc1ccc(C(F)(F)F)cc1)Nc1cccc(-c2cccc(N3CCCC3)n2)c1 [Compound 10e, 1-(3-(6-(Pyrrolidin-1-yl)pyridin-2-yl)phenyl)-3-(4-(trifluoromethyl)phenyl)urea] |  |  | 161 | 218 | 128 | 51
O=C(Nc1cccc(-c2cccc(N3CCCC3)n2)c1)Nc1cccc(C(F)(F)F)c1 [Compound 10f, 1-(3-(6-(Pyrrolidin-1-yl)pyridin-2-yl)phenyl)-3-(3-(trifluoromethyl)phenyl)urea] |  |  | 116 | 242 | 129 | 220
O=C(Nc1cccc(-c2cccc(N3CCCC3)n2)c1)Nc1ccccc1C(F)(F)F [Compound 10g, 1-(3-(6-(Pyrrolidin-1-yl)pyridin-2-yl)phenyl)-3-(2-(trifluoromethyl)phenyl)urea] |  |  | 119 | 1160 | 123 | 2090
COc1ccc(NC(=O)Nc2cccc(-c3cccc(N4CCCC4)n3)c2)cc1 [Compound 10h, 1-(4-Methoxyphenyl)-3-(3-(6-(pyrrolidin-1-yl)pyridin-2-yl)phenyl)urea] |  |  | 97 | 1230 | 98 | 99
COc1cccc(NC(=O)Nc2cccc(-c3cccc(N4CCCC4)n3)c2)c1 [Compound 10i, 1-(3-Methoxyphenyl)-3-(3-(6-(pyrrolidin-1-yl)pyridin-2-yl)phenyl)urea] |  |  | 92 | 1790 | 109 | 497
COc1ccccc1NC(=O)Nc1cccc(-c2cccc(N3CCCC3)n2)c1 [Compound 10j, 1-(2-Methoxyphenyl)-3-(3-(6-(pyrrolidin-1-yl)pyridin-2-yl)phenyl)urea] |  |  | 0 | > 10000 | 93 | 1230
O=C(Nc1ccc(Oc2ccccc2)cc1)Nc1cccc(-c2cccc(N3CCCC3)n2)c1 [Compound 10k, 1-(4-Phenoxyphenyl)-3-(3-(6-(pyrrolidin-1-yl)pyridin-2-yl)phenyl)urea] |  |  | 91 | 750 | 123 | 115
O=C(Nc1cccc(Oc2ccccc2)c1)Nc1cccc(-c2cccc(N3CCCC3)n2)c1 [Compound 10l, 1-(3-Phenoxyphenyl)-3-(3-(6-(pyrrolidin-1-yl)pyridin-2-yl)phenyl)urea] |  |  | 57 | 2240 | 117 | 86
